From US11312726B2, “Thienodiazepine derivatives and application thereof” (priority 2017, dated 2022)

System: Human breast cancer MDA-MB-231_luc cell subcutaneous xenograft tumor
Assay: In vivo pharmacodynamics, MDA-MB-231_luc subcutaneous xenograft tumor model
Details: 50 mg/kg PO BID × 21 days
Method: In Vivo Pharmacodynamics Study of Compound 32 on Human Breast Cancer MDA-MB-231_luc Cell Subcutaneous Xenograft Tumor Model
Strain: BALB/c nude mouse
Week-age and weight: 6-8 weeks of age, 18-22 grams of body weight
Supplier: Shanghai Sippr-BK laboratory animal Co. Ltd.
3. Experiment Methods and Steps
Human breast cancer MDA-MB-231_luc cells were cultured in monolayer in vitro and the culture conditions were RPMI-1640 culture medium (supplier: Gibco; article number: 22400-089; manufacturing batch number: 4868546) with 10% fetal bovine serum, 100 U/ml penicillin and 100 μg/ml streptomycin. The culture was performed at 37° C. in 5% CO2. Conventional digestion treatment with pancreatin-EDTA for passage was carried out twice a week. When the cells were in the exponential growth phase, the cells were harvested, counted, and inoculated.
3.2 Tumor Cell Inoculation
0.2 mL of 10×10^6 MDA-MB-231_luc cells were subcutaneously inoculated into the right-back of each nude mouse (PBS:Matrigel=1:1). The grouping and administration was started when the average tumor volume reached 100-150 mm^3.
3.3 Tumor Measurement and Experiment Indices
The experiment index was to investigate whether tumor growth was inhibited, delayed or cured. Tumor diameter was measured twice a week with vernier calipers. The equation for calculating the tumor volume was V=0.5×a×b^2, wherein a and b represented the major and minor diameters of the tumor, respectively.
The tumor inhibition effect of the compound was evaluated by TGI (%) or relative tumor proliferation rate T/C (%). TGI (%) reflected the tumor growth inhibition rate.
Relative tumor proliferation rate T/C (%) was calculated according to the below equation: T/C %=TRTV/CRTV×100% (TRTV: RTV of the treatment group; CRTV: RTV of the negative control group). The relative tumor volume (RTV) was calculated according to the results of the tumor measurement. The calculation equation was RTV=Vt/V0, where V0 was the average tumor volume measured at the grouping and administration (i.e. d0), and Vt was the average tumor volume at the time of a certain measurement. TRTV and CRTV were obtained from the data on the same day.
At the end of the experiment, the tumor weight would be measured and the Tweight/Cweight percentage would be calculated. Tweight and Cweight represented the tumor weights of the administration group and the medium control group, respectively.
Statistical analysis included mean value and standard error (SEM) of the tumor volume of each group at each time point. […] The comparison between two groups was analyzed by T-test, and the comparison between three or more groups was analyzed by one-way ANOVA.

## Cc1sc2c(c1C)C(c1ccc(Cl)cc1)=N[C@@H](CC(=O)Nc1ccc3c(c1)COC3=O)c1nnc(C)n1-2 [Compound 32]
  change in body weight of the animals: no significant change
  tolerance of the animals: well tolerated
21st day after administration
  relative tumor proliferation rate T/C: 52.99%
  tumor growth inhibition rate TGI: 54.85%
